Data published in article PMC8280112, “Substrate reduction therapy for Krabbe disease and metachromatic leukodystrophy using a novel ceramide galactosyltransferase inhibitor” (Scientific Reports, 2021).
Like-named read-outs stand apart in the source and are kept apart here.

Experiments:
[1] = system: GalCer and sulfatide levels; experiment: PND3 wild-type mouse repeat dose study: LC-MS of GalCer and sulfatide in brain and sciatic nerve; assay type: in vivo; settings: wild-type mice
Experimental: Animals were euthanized by exsanguinations under deep anesthesia, the brain and sciatic nerve were removed, rinsed in cold saline, dried, and snap frozen for lipid quantification.
Whole brain was homogenized in 3 volumes H2O (v/w) and further diluted as necessary in H2O. Given the small size, the sciatic nerve weight was recorded and homogenized in a larger fixed volume. 25 µL of diluted homogenate was added to 35 µL DMSO, 200 µL of methanol, and 325 µL acetone/methanol (50/50) and vortexed approximately 30 min. Next, 150 µL water and 300 µL water/methanol (13/87) were added before centrifuging for 5 min at RT at 14,000 rpm. […] supernatant was transferred onto a pre-conditioned C18-SPE cartridge, washed with 2 mL methanol/acetone/water (67/23/10), and eluted with 1.5 mL acetone/methanol (90/10). The eluate was dried before reconstituting with 50 µL DMSO (including N-C16:0-CD3-Glucosylceramide, IS Matreya) and 200 ACN. 3 µL of suspension was injected into LC–MS/MS for analysis. GalCers were separated from isobaric GluCers by Halo-Hilic (4.6 × 150 mm, 2.7 µm) column with a mobile phase of 95/2.5/2.5 ACN/MeOH/H2O (with 0.5 FA + 5 mM NH4OAc) 100% for 9.5 min at 50 °C and a 0.50 mL/min flow rate. Non-hydroxy-GalCer and 2-hydroxy-GalCer were detected using MRM on an LC–MS/MS (Agilent 6410) in positive ESI mode. Purified non-hydroxy-GalCer (Kerasin, Matreya) or 2-hydroxy-GalCer (Phrenosin, Matreya) were used as reference standards. All non-hydroxy-GalCer or 2-hydroxy-GalCer species identified in the reference standards were summed, normalized to the IS, and reported as percentage of vehicle control (Fig. 2B,C). In Supplementary Figure S1, individual acyl chains were identified, normalized to the IS, and plotted as percentage of vehicle control.
Previously diluted brain homogenate was serially diluted (10 µL into 90 µL and then 20 µL into 80 µL) in ACN/H2O (v/v 1:1) before being added to 300 µL ACN with IS (N-C18:0-CD3-sulfatide, Matreya). […] Non-hydroxy-sulfatide and 2-hydroxy-sulfatide were detected using MRM on a UPLC-MS/MS-22 (Triple Quad 6500) in positive ESI mode. […]

[2] = system: Sphingomyelin synthase (SMS); experiment: Sphingomyelin synthase assay; assay type: biochemical; settings: MDCK cell lysate
Experimental: 100 µL assay buffer (50 mM Tris buffer pH 7.5 containing 25 mM KCl, 0.5 mM EDTA, 10 µM NBD-C6 ceramide, 100 µM DOPC, and 0.01% Tween 80), 60 µg MDCK cell lysate, and serial diluted compounds were incubated at 37 ℃ for 1 h. The reaction was terminated and prepared for LC–MS using the same protocol as the GCS assay, however, a NBD-C6-sphingomyelin (Avanti) reference standard was used to quantify the sphingomyelin synthesis.

wild-type C57BL/6 mice = experiment: PND3 wild-type mouse repeat dose study: tolerability; assay type: in vivo
CB1 receptor = target: T1, CB1 receptor (Homo sapiens, UniProt P21554); experiment: CB1R activity (Eurofin Cerep); assay type: cell-based
T1 construct: purchased Eurofin Cerep ITEM G012
T1 sequence (P21554 whole entry): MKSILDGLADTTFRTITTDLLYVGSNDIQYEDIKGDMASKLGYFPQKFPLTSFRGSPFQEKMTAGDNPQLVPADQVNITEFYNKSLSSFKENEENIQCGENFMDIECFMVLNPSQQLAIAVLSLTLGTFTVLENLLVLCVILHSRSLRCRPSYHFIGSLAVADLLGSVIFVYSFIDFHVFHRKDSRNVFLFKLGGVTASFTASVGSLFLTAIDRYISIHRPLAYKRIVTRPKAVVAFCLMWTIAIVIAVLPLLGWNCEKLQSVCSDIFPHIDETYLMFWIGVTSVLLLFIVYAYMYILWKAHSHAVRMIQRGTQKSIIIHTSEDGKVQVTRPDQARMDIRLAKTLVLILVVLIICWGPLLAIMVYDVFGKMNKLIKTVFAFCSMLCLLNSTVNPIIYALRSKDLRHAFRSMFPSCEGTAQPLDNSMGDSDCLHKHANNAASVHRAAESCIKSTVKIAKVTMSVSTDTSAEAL
Experimental: CB1R activity was evaluated at Eurofin Cerep, Le Bois l'Evêque, France ITEM […].

[3] = system: sulfatide and lysosulfatide levels; experiment: ARSA knockout (MLD) mouse brain sulfatide and lysosulfatide analysis; assay type: in vivo; settings: MLD (ARSA knockout) mice, IP three times per week
Experimental: ARSA mice were obtained from Volkmar Gieselmann, University of Bonn. ARSA −/− mice were generated from heterozygous pairing and confirmed by PCR genotyping. […] Animals were euthanized by exsanguination under deep anesthesia and brain and sciatic nerve removed, rinsed in cold saline, dried, and snap frozen for lipid quantification.
Previously diluted brain homogenate was serially diluted (10 µL into 90 µL and then 20 µL into 80 µL) in ACN/H2O (v/v 1:1) before being added to 300 µL ACN with IS (N-C18:0-CD3-sulfatide, Matreya). The mixture was vortexed for 10 min, centrifuged at 5800 rpm for 10 min, and then 3 µL of supernatant was injected for LC–MS/MS analysis. Sulfatides were separated on an ACE 5 C18 (2.1 × 50 mm, 5 µm) column (0.6 mL/min flow rate) at 60 °C using mobile phase A (H2O-5 mM NH4OAc) and mobile phase B (ACN). Non-hydroxy-sulfatide and 2-hydroxy-sulfatide were detected using MRM on a UPLC-MS/MS-22 (Triple Quad 6500) in positive ESI mode. Total sulfatides (Matreya) were used as reference standards. The non-hydroxy-sulfatide or 2-hydroxy-sulfatide species identified in the reference standards were each summed and normalized relative to the vehicle treated animals.
Sulfatides were quantified using the methods described above. For lysosulfatide, 30 µL of brain homogenates were added to 200 µL ACN with IS (N-acetylsulfatide, Matreya), vortexed for 10 min, and centrifuged at 5800 rpm for 10 min. 3 µL of supernatant was injected for LC–MS/MS analysis. UPLC–MS/MS methods were the same used for sulfatides described above except lysosulfatide (Matreya) was used as a reference standard.

## C[C@H]1N(c2ccc(Br)cc2)C(=O)N(c2ccc(Br)cc2)C1(O)c1cccc(OC(F)(F)F)c1 (stereo partly shown) [S202]
[1]; higher doses (> 1.5 mg/kg)
  GalCer synthesis in the brains: reduced synthesis of both non-hydroxy-GalCer and 2-hydroxy-GalCer
[1]; lower doses
  2-hydroxy-GalCer levels in the brains: consistently increase
[1]; lower doses (0.015 to 0.5 mg/kg)
  non-hydroxy-GalCer levels in the brains: greatly decreased
[2]
  IC50: > 50 µM
wild-type C57BL/6 mice; daily IP PND3 to PND40, above 0.5 mg/kg
  phenotypes: reduced weight gain, mild hind limb gait abnormalities, and some animal deaths
wild-type C57BL/6 mice; daily IP PND3 to PND40, lower doses
  tolerability: well tolerated at lower doses
CB1 receptor; S202 relative to S221
  potency as a CB1 inverse agonist, change through optimization of S221: reduced tenfold
CB1 receptor; antagonist mode, read-out: CB1R antagonist IC50
  IC50: 2.9 µM
CB1 receptor; inverse agonist mode, read-out: CB1R inverse agonist IC50
  IC50: 2.1 µM
CB1 receptor; read-out: CB1 receptor IC50
  IC50: 3 µM
[3]; higher doses
  2-hydroxy-sulfatides in brain: reduced
[3]; lower doses
  lysosulfatide in brain: reduction
  non-hydroxy-sulfatide in brain: reduction
